Measurements reported in US12441725B2, “ISO-citrate dehydrogenase (IDH) inhibitor” (ZHEJIANG METON PHARMACEUTICAL CO., LTD, priority 2019, dated 2025).

Legend:
IDH1 R132C = molecular target: T1, IDH1 R132C (Homo sapiens, UniProt O75874, R132C); assay: Biochemical assay for IDH inhibition (NADPH fluorescence), mutant IDH1 R132C; settings: 25 nM IDH1-R132C, 1 hour pre-incubation, in triplet
T1 construct: 6xHis
Method in brief: (§1)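 Mutant enzyme (25 nM R132C or 50 nM R132H) was preincubated 1 h at room temperature with compound in pH 7.5 Tris buffer containing 1.33 mM α-KG, and the reaction was then started with NADPH (80 μM solution). NADPH consumption was followed by fluorescence (Ex 340/Em 460 nm) for 15 min. IC50 was derived from background-corrected linear rates relative to vehicle, run in triplicate.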

IDH1 R132H = molecular target: T2, IDH1 R132H (Homo sapiens, UniProt O75874, R132H); assay: Biochemical assay for IDH inhibition (NADPH fluorescence), mutant IDH1 R132H; settings: 50 nM IDH1-R132H, 1 hour pre-incubation, in triplet
T2 construct: 6xHis
Method in brief: as §1

[1] = molecular target: T3, IDH (endogenous IDH1 R132C) in HT1080 cell (Homo sapiens, UniProt O75874, R132C); assay: Cell-based assay for IDH inhibition (decrease of D-2-HG) in HT1080 cells; settings: human fibrosarcoma cell line HT1080, 16 hours treatment, D-2-HG by LC-MS, in triplet
T3 construct: which harbor endogenous heterozygous IDH1 R132C and R132H mutation respectively and accumulate D-2-HG
Method in brief: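 HT1080 cells with endogenous IDH1 R132C, grown in DMEM/10% FBS, treated with compound at several concentrations for 16 h. Metabolites extracted in cold 40% methanol/40% acetonitrile and D-2-HG measured by HILIC LC-MS/MS, normalized to glutamate. IC50 from D-2-HG relative to DMSO controls; run in triplicate.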

T2 sequence (O75874 whole entry R132H): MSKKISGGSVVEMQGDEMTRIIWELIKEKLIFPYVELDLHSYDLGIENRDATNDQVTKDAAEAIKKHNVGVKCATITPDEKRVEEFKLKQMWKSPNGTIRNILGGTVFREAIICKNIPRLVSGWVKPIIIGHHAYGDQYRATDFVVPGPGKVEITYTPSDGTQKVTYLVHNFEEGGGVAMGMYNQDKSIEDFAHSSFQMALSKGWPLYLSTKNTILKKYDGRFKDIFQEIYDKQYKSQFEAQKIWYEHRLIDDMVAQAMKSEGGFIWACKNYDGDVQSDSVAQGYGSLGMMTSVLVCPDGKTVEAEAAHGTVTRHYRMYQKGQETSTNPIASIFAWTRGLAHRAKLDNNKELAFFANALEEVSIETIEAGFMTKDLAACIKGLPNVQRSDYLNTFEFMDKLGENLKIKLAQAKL
T3 sequence (O75874 2-414 R132C): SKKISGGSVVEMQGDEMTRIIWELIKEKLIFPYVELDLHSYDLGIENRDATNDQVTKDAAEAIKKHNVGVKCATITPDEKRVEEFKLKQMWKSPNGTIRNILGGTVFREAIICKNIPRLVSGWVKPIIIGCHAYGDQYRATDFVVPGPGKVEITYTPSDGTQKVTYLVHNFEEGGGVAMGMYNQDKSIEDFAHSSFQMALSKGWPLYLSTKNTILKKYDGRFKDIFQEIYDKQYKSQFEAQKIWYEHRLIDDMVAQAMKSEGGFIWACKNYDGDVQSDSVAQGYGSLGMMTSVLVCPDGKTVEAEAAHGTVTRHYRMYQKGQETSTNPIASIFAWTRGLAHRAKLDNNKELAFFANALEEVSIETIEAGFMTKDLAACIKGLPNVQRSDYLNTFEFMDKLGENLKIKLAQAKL
T1 sequence (O75874 whole entry R132C): as the sequence (O75874 whole entry R132H) above, with H132C counted along it

Q: `CCN1Cc2c(ccnc2N[C@@H](C)c2cc(F)c(-c3cc(C(C)(C)C)ccn3)cc2F)C1=O` [Compound 108, (S)-4-((1-(4-(4-(tert-butyl)pyridin-2-yl)-2,5-difluorophenyl)ethyl)amino)-2-ethyl-2,3-dihydro-1H-pyrrolo[3,4-c]pyridin-1-one] was tested. Which IC50 (IDH1 R132C) did it give?
A: < 100 nM

Q: And the IC50 (IDH1 R132H)?
A: < 100 nM

Q: What about the IC50 [1] of the same compound?
A: < 100 nM

Q: `CCN1Cc2c(ccnc2N[C@@H](C)c2cc(F)c(-c3cncc(C(C)(C)C)c3)cc2F)C1=O` [Compound 109, (S)-4-((1-(4-(5-(tert-butyl)pyridin-3-yl)-2,5-difluorophenyl)ethyl)amino)-2-ethyl-2,3-dihydro-1H-pyrrolo[3,4-c]pyridin-1-one] was tested. Which IC50 (IDH1 R132C) did it give?
A: < 100 nM

Q: What about the IC50 (IDH1 R132H) of the same compound?
A: < 100 nM

Q: And the IC50 [1]?
A: < 100 nM

Q: With `CCN1Cc2c(ccnc2N[C@@H](C)c2cc(F)c(-c3cc(C(C)(C)C)ncn3)cc2F)C1=O` [Compound 110, (S)-4-((1-(4-(6-(tert-butyl)pyrimidin-4-yl)-2,5-difluorophenyl)ethyl)amino)-2-ethyl-2,3-dihydro-1H-pyrrolo[3,4-c]pyridin-1-one] as the compound, how does the IC50 (IDH1 R132C) read?
A: < 100 nM

Q: What about the IC50 (IDH1 R132H) of the same compound?
A: < 100 nM

Q: And the IC50 [1]?
A: < 100 nM

Q: Which results are given for `CCN1Cc2c(ccnc2N[C@@H](C)c2cc(F)c(-c3ccnc(C(C)(C)C)n3)cc2F)C1=O` [Compound 111, (S)-4-((1-(4-(2-(tert-butyl)pyrimidin-4-yl)-2,5-difluorophenyl)ethyl)amino)-2-ethyl-2,3-dihydro-1H-pyrrolo[3,4-c]pyridin-1-one]?
A: IC50 (IDH1 R132C): 100 to 500 nM; IC50 (IDH1 R132H): < 100 nM; IC50 [1]: 100 to 500 nM

Q: For `CCN1Cc2c(ccnc2N[C@@H](C)c2cc(F)c(-c3cc(C(C)(C)F)ccn3)cc2F)C1=O` [Compound 112, (S)-4-((1-(2,5-difluoro-4-(4-(2-fluoropropan-2-yl)pyridin-2-yl)phenyl)ethyl)amino)-2-ethyl-2,3-dihydro-1H-pyrrolo[3,4-c]pyridin-1-one], which IC50 (IDH1 R132C) is on record?
A: < 100 nM

Q: And the IC50 (IDH1 R132H)?
A: < 100 nM

Q: And the IC50 [1]?
A: < 100 nM

Q: What does the source list for `CCN1Cc2c(ccnc2N[C@@H](C)c2cc(F)c(-c3cc(C(C)(C)F)cc(C)n3)cc2F)C1=O` [Compound 113, (S)-4-((1-(2,5-difluoro-4-(4-(2-fluoropropan-2-yl)-6-methylpyridin-2-yl)phenyl)ethyl)amino)-2-ethyl-2,3-dihydro-1H-pyrrolo[3,4-c]pyridin-1-one]?
A: IC50 (IDH1 R132C): < 100 nM; IC50 (IDH1 R132H): < 100 nM; IC50 [1]: < 100 nM

Q: For `CCN1Cc2c(ccnc2N[C@@H](C)c2cc(F)c(-c3cc(C#N)ccn3)cc2F)C1=O` [Compound 114, (S)-2-(4-(1-((2-ethyl-1-oxo-2,3-dihydro-1H-pyrrolo[3,4-c]pyridin-4-yl)amino)ethyl)-2,5-difluorophenyl)isonicotinonitrile], which IC50 (IDH1 R132C) is on record?
A: > 1000 nM

Q: What about the IC50 (IDH1 R132H) of the same compound?
A: > 1000 nM

Q: What about the IC50 [1] of the same compound?
A: 500 to 1000 nM

Q: How did the IC50 (IDH1 R132C) turn out when `CCN1Cc2c(ccnc2N[C@@H](C)c2cc(F)c(-c3cc(C(F)(F)F)ccn3)cc2F)C1=O` [Compound 115, (S)-4-((1-(2,5-difluoro-4-(4-(trifluoromethyl)pyridin-2-yl)phenyl)ethyl)amino)-2-ethyl-2,3-dihydro-1H-pyrrolo[3,4-c]pyridin-1-one] was run?
A: 100 to 500 nM

Q: And the IC50 (IDH1 R132H)?
A: < 100 nM

Q: And the IC50 [1]?
A: 100 to 500 nM

Q: Which results are given for `CCN1Cc2c(ccnc2N[C@@H](C)c2cc(F)c(-c3cc(C(C)(C)C)ncc3OC)cc2F)C1=O` [Compound 116, (S)-4-((1-(4-(2-(tert-butyl)-5-methoxypyridin-4-yl)-2,5-difluorophenyl)ethyl)amino)-2-ethyl-2,3-dihydro-1H-pyrrolo[3,4-c]pyridin-1-one]?
A: IC50 (IDH1 R132C): < 100 nM; IC50 (IDH1 R132H): < 100 nM; IC50 [1]: < 100 nM

Q: What does the source list for `CCN1Cc2c(ccnc2N[C@@H](C)c2cc(F)c(-c3nc(C(C)(C)C)ccc3OC)cc2F)C1=O` [Compound 117, (S)-4-((1-(4-(6-(tert-butyl)-3-methoxypyridin-2-yl)-2,5-difluorophenyl)ethyl)amino)-2-ethyl-2,3-dihydro-1H-pyrrolo[3,4-c]pyridin-1-one]?
A: IC50 (IDH1 R132C): < 100 nM; IC50 (IDH1 R132H): < 100 nM; IC50 [1]: < 100 nM

Q: With `CCN1Cc2c(ccnc2N[C@@H](C)c2cc(F)c(-c3cc(C(C)(C)F)cc(CF)n3)cc2F)C1=O` [Compound 118, (S)-4-((1-(2,5-difluoro-4-(6-(fluoromethyl)-4-(2-fluoropropan-2-yl)pyridin-2-yl)phenyl)ethyl)amino)-2-ethyl-2,3-dihydro-1H-pyrrolo[3,4-c]pyridin-1-one] as the compound, how does the IC50 (IDH1 R132C) read?
A: < 100 nM

Q: What about the IC50 (IDH1 R132H) of the same compound?
A: < 100 nM

Q: What about the IC50 [1] of the same compound?
A: < 100 nM

Q: With `CCN1Cc2c(ccnc2N[C@@H](C)c2cc(F)c(-c3cc(C(C)(C)F)cc(F)n3)cc2F)C1=O` [Compound 119, (S)-4-((1-(2,5-difluoro-4-(6-fluoro-4-(2-fluoropropan-2-yl)pyridin-2-yl)phenyl)ethyl)amino)-2-ethyl-2,3-dihydro-1H-pyrrolo[3,4-c]pyridin-1-one] as the compound, how does the IC50 (IDH1 R132C) read?
A: < 100 nM

Q: What about the IC50 (IDH1 R132H) of the same compound?
A: < 100 nM

Q: What about the IC50 [1] of the same compound?
A: < 100 nM

Q: For `CCN1Cc2c(ccnc2N[C@@H](C)c2cc(F)c(-c3cc(C(C)(C)F)cc(OC)n3)cc2F)C1=O` [Compound 120, (S)-4-((1-(2,5-difluoro-4-(4-(2-fluoropropan-2-yl)-6-methoxypyridin-2-yl)phenyl)ethyl)amino)-2-ethyl-2,3-dihydro-1H-pyrrolo[3,4-c]pyridin-1-one], which IC50 (IDH1 R132C) is on record?
A: < 100 nM

Q: What about the IC50 (IDH1 R132H) of the same compound?
A: < 100 nM

Q: And the IC50 [1]?
A: < 100 nM

Q: Which IC50 (IDH1 R132C) does the source give for `CCN1Cc2c(ccnc2N[C@@H](C)c2cc(F)c(-c3cc(C(F)(F)F)cc(Cl)n3)cc2F)C1=O` [Compound 121, (S)-4-((1-(4-(6-chloro-4-(trifluoromethyl)pyridin-2-yl)-2,5-difluorophenyl)ethyl)amino)-2-ethyl-2,3-dihydro-1H-pyrrolo[3,4-c]pyridin-1-one] here?
A: 100 to 500 nM

Q: What about the IC50 (IDH1 R132H) of the same compound?
A: < 100 nM

Q: What about the IC50 [1] of the same compound?
A: 500 to 1000 nM

Q: What does the source list for `CCN1Cc2c(ccnc2N[C@@H](C)c2cc(F)c(-c3cc(C(F)(F)F)cc(C)n3)cc2F)C1=O` [Compound 122, (S)-4-((1-(2,5-difluoro-4-(6-methyl-4-(trifluoromethyl)pyridin-2-yl)phenyl)ethyl)amino)-2-ethyl-2,3-dihydro-1H-pyrrolo[3,4-c]pyridin-1-one]?
A: IC50 (IDH1 R132C): < 100 nM; IC50 (IDH1 R132H): < 100 nM; IC50 [1]: 100 to 500 nM

Q: Which IC50 (IDH1 R132C) does the source give for `CCN1Cc2c(ccnc2N[C@@H](C)c2cc(F)c(-c3cc(C(F)(F)F)cc(CF)n3)cc2F)C1=O` [Compound 123, (S)-4-((1-(2,5-difluoro-4-(6-(fluoromethyl)-4-(trifluoromethyl)pyridin-2-yl)phenyl)ethyl)amino)-2-ethyl-2,3-dihydro-1H-pyrrolo[3,4-c]pyridin-1-one] here?
A: < 100 nM

Q: What about the IC50 (IDH1 R132H) of the same compound?
A: < 100 nM

Q: And the IC50 [1]?
A: 100 to 500 nM

Q: For `CCN1Cc2c(ccnc2N[C@@H](C)c2cc(F)c(-c3cc(C4(C(F)(F)F)CC4)ccn3)cc2F)C1=O` [Compound 124, (S)-4-((1-(2,5-difluoro-4-(4-(1-(trifluoromethyl)cyclopropyl)pyridin-2-yl)phenyl)ethyl)amino)-2-ethyl-2,3-dihydro-1H-pyrrolo[3,4-c]pyridin-1-one], which IC50 (IDH1 R132C) is on record?
A: < 100 nM

Q: And the IC50 (IDH1 R132H)?
A: < 100 nM

Q: And the IC50 [1]?
A: < 100 nM

Q: Which IC50 (IDH1 R132C) does the source give for `C/C=C(\c1ccnc(-c2cc(F)c([C@H](C)Nc3nccc4c3CN(CC)C4=O)cc2F)c1)C(F)(F)F` [Compound 125, (S,E)-4-((1-(2,5-difluoro-4-(4-(1,1,1-trifluorobut-2-en-2-yl)pyridin-2-yl)phenyl)ethyl)amino)-2-ethyl-2,3-dihydro-1H-pyrrolo[3,4-c]pyridin-1-one] here?
A: < 100 nM

Q: What about the IC50 (IDH1 R132H) of the same compound?
A: < 100 nM

Q: What about the IC50 [1] of the same compound?
A: < 100 nM

Q: How did the IC50 (IDH1 R132C) turn out when `CCN1Cc2c(ccnc2N[C@@H](C)c2cc(F)c(-c3cc(C4(C(F)(F)F)CC=NN4)ccn3)cc2F)C1=O` (stereo partly drawn) [Compound 126, 4-(((1S)-1-(2,5-difluoro-4-(4-(5-(trifluoromethyl)-4,5-dihydro-1H-pyrazol-5-yl)pyridin-2-yl)phenyl)ethyl)amino)-2-ethyl-2,3-dihydro-1H-pyrrolo[3,4-c]pyridin-1-one] was run?
A: 100 to 500 nM

Q: What about the IC50 (IDH1 R132H) of the same compound?
A: < 100 nM

Q: What about the IC50 [1] of the same compound?
A: 100 to 500 nM

Q: Which results are given for `CCN1Cc2c(ccnc2N[C@@H](C)c2cc(F)c(-c3cc(C(C)(C)F)c(C)cn3)cc2F)C1=O` [Compound 127, (S)-4-((1-(2,5-difluoro-4-(4-(2-fluoropropan-2-yl)-5-methylpyridin-2-yl)phenyl)ethyl)amino)-2-ethyl-2,3-dihydro-1H-pyrrolo[3,4-c]pyridin-1-one]?
A: IC50 (IDH1 R132C): < 100 nM; IC50 (IDH1 R132H): < 100 nM; IC50 [1]: < 100 nM

Q: `CCN1Cc2c(ccnc2N[C@@H](C)c2cc(F)c(-c3cc(NC(C)(C)C)cc(C)n3)cc2F)C1=O` [Compound 128, (S)-4-((1-(4-(4-(tert-butylamino)-6-methylpyridin-2-yl)-2,5-difluorophenyl)ethyl)amino)-2-ethyl-2,3-dihydro-1H-pyrrolo[3,4-c]pyridin-1-one] was tested. Which IC50 (IDH1 R132C) did it give?
A: 100 to 500 nM

Q: And the IC50 (IDH1 R132H)?
A: < 100 nM

Q: What about the IC50 [1] of the same compound?
A: 100 to 500 nM

Q: Which IC50 (IDH1 R132C) does the source give for `CCN1Cc2c(ccnc2N[C@@H](C)c2cc(F)c(-c3cc(OC(C)(C)C)cc(C)n3)cc2F)C1=O` [Compound 129, (S)-4-((1-(4-(4-(tert-butoxy)-6-methylpyridin-2-yl)-2,5-difluorophenyl)ethyl)amino)-2-ethyl-2,3-dihydro-1H-pyrrolo[3,4-c]pyridin-1-one] here?
A: < 100 nM

Q: And the IC50 (IDH1 R132H)?
A: < 100 nM

Q: What about the IC50 [1] of the same compound?
A: < 100 nM

Q: `CCN1Cc2c(ccnc2N[C@@H](C)c2cc(F)c(-c3cc(C(C)(C)F)ncn3)cc2F)C1=O` [Compound 130, (S)-4-((1-(2,5-difluoro-4-(6-(2-fluoropropan-2-yl)pyrimidin-4-yl)phenyl)ethyl)amino)-2-ethyl-2,3-dihydro-1H-pyrrolo[3,4-c]pyridin-1-one] was tested. Which IC50 (IDH1 R132C) did it give?
A: 100 to 500 nM

Q: What about the IC50 (IDH1 R132H) of the same compound?
A: < 100 nM

Q: What about the IC50 [1] of the same compound?
A: 100 to 500 nM
